One test has as its target PIM-1 (Homo sapiens (Human), UniProt P11309). Kind of test: Luminometric kinase assay for PIM1 kinase (Kinase-Glo). Format: biochemical. To be noted: 1 μM ATP, 25 min at RT. The method, then:
Kinase assay was performed using luminescent Kinase-Glo® (Promega) system. The Kinase-Glo® Luminescent Kinase Assay Platform provides a homogeneous, high-throughput screening method for measuring kinase activity by quantifying the amount of ATP remaining in solution following a kinase reaction. The luminescent signal is correlated with the amount of ATP present and is inversely correlated with the kinase activity. Appropriate amounts of both kinase and substrate were mixed in 96-well, white wall plate in the reaction buffer (8 mM MOPS/NaOH, pH7.0, 0.2 mM EDTA, 2 mM MgCl2). Tested compounds were diluted in DMSO and serial dilutions starting with 1 μM were added to the palates. Reaction was initiated by adding 1 μM of ATP solution and conducted for 25 min. at RT. Luminescent signal was detected by adding Kinase-Glo® reagent and measured using a microplate spectrophotometer (Synergy 2 multi-mode microplate reader (BioTek)). IC50 values were obtained by fitting sigmoidal dose-response curve (variable slope) using GraphPad Prism software.
For orientation: Kinase-Glo reads ATP consumption through a luciferase reaction.

Test [1] relates to human myelomonocytic, biphenotypic leukemia MV4-11 cells. Nature of the test: Growth inhibition test (MTS) on MV4-11 cells. It is filed as cell-based. To be noted: Homo sapiens, MV4-11, 72 hours, read-out: MV-4-11 ED50. Here is the method: (§1) Ten thousand cells of human myelomonocytic, biphenotypic leukemia MV4-11 were inoculated into each well of a 96-well microplate (manufactured by Corning Corp.) using Iscove's MDM medium (culture medium) containing 10% fetal calf serum (FCS). Next day, a dimethyl sulfoxide (DMSO) solution of each test compound prepared in a concentration of 10 mmol/L was further diluted with culture medium to the desired concentrations (0.1, 0.5, 1, 2.5, 5 and 10 micromol/L), and the diluted solution was added to each well. The individual wells were further cultured in 5% carbon dioxide at 37° C. for 72 hours. After completion of the culture, 10 μl MTS (3-(4,5-Dimethyl-2-thiazolyl)-5-(carboxymethoxyphenyl)-2-(4-sulfophenyl)-2H-tetrazolium, inner salt assay (CellTiter96® AQueous One Solution Cell Proliferation Assay, Promega) was added to each well, and culturing was performed in 5% carbon dioxide at 37° C. for 2 hours. Using a microplate spectrophotometer (Synergy 2 multi-mode microplate reader (BioTek)), the absorbance of each well was measured at 490 nm. The value for cells not incorporated with a test compound was designated as 100%. By comparing these values with the absorbance difference obtained at the well in which each test compound was added, the cell viability (% viability) after treatment with the test compound was calculated.

The subject of test [2] is human hepatoma HepG2 cells. Kind of test: Growth inhibition test (MTS) on HepG2 cells. To be noted: 72 hours, read-out: HepG2 ED50. Format: cell-based. The method, then:
as §1, with “Two” for “Ten”, “hepatoma HepG2” for “myelomonocytic, biphenotypic leukemia MV4-11”, “DMEM” for “Iscove's MDM”

The subject of test [3] is human prostate adenocarcinoma PC3 cells. Nature of the test: Growth inhibition test (MTS) on PC3 cells. It is filed as cell-based. To be noted: Homo sapiens, PC-3, 72 hours, read-out: PC-3 ED50.
Excerpt: as §1, with “Two” for “Ten”, “prostate adenocarcinoma PC3” for “myelomonocytic, biphenotypic leukemia MV4-11”, “Corp.), and” for “Corp.)”, “F12K (Ham's F12:[…] 1:1)” for “Iscove's MDM”

Sequence of PIM-1 (P11309 whole entry): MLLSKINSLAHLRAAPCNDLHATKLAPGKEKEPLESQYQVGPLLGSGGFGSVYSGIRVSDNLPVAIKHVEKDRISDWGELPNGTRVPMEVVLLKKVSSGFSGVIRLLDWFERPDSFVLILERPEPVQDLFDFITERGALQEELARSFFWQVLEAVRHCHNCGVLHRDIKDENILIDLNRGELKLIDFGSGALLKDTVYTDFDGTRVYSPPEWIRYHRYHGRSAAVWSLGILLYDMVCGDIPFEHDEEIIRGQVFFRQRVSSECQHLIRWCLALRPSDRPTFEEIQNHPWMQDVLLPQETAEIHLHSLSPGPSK

On to `N[C@@H]1CC=CC[C@H]1Nc1nc2c(Br)c(Br)c(Br)c(Br)c2[nH]1` (relative stereo) [Compound 331, Trans N1-(4,5,6,7-tetrabromo-1H-benzo[d]imidazol-2-yl)cyclohex-4-ene-1,2-diamine], for which the IC50 worked out at 14.8 nM on PIM-1 and 1360 nM in test [1]. The like results for `Brc1c(Br)c(Br)c2[nH]c(N3CCCC3)nc2c1Br` [Compound 18, 4,5,6,7-tetrabromo-2-(pyrrolidin-1-yl)-1H-benzo[d]imidazole] were, in that order, 13.3 nM and 7680 nM. As for `Brc1c(Br)c(Br)c2[nH]c(Nc3ccncc3)nc2c1Br` [Compound 28, 4,5,6,7-tetrabromo-N-(pyridin-4-yl)-1H-benzo[d]imidazol-2-amine], the IC50 on PIM-1 came out at 37 nM. For `Brc1c(Br)c(Br)c2[nH]c(NCCCN3CCCCC3)nc2c1Br` [Compound 59, 4,5,6,7-tetrabromo-N-(3-(piperidin-1-yl)propyl)-1H-benzo[d]imidazol-2-amine], the IC50 on PIM-1 came to 50.8 nM; in test [2], 3600 nM. As to `NCCCCNc1nc2c(Br)c(Br)c(Br)c(Br)c2[nH]1` [Compound 61, N-(4-aminobutyl)-4,5,6,7-tetrabromo-1H-benzo[d]imidazol-2-amine], the IC50 on PIM-1 stood at 8.85 nM; in test [3] it was 8330 nM; in test [2] it was 7350 nM. For the molecule `Brc1c(Br)c(Br)c2[nH]c(NCC3CCNCC3)nc2c1Br` [Compound 67, 4,5,6,7-tetrabromo-N-((piperidin-4-yl)methyl)-1H-benzo[d]imidazol-2-amine], the IC50 at PIM-1 came to 65.2 nM. Turning to `Brc1c(Br)c(Br)c2[nH]c(Nc3ccccc3)nc2c1Br` [Compound 79, 4,5,6,7-tetrabromo-N-phenyl-1H-benzo[d]imidazol-2-amine], the values for the IC50 (at PIM-1; in test [2]) were 68.2 nM and 6520 nM, respectively.

As to `Brc1c(Br)c(Br)c2[nH]c(NCc3ccccc3)nc2c1Br` [Compound 82, N-benzyl-4,5,6,7-tetrabromo-1H-benzo[d]imidazol-2-amine], the IC50 at PIM-1 was determined as 200 nM.

For the molecule `Nc1ccc(Nc2nc3c(Br)c(Br)c(Br)c(Br)c3[nH]2)cc1` [Compound 86, N1-(4,5,6,7-tetrabromo-1H-benzo[d]imidazol-2-yl)benzene-1,4-diamine], the IC50 at PIM-1 came out at 66 nM.

As for `NCC(O)CNc1nc2c(Br)c(Br)c(Br)c(Br)c2[nH]1` (stereo not drawn) [Compound 90, 1-(4,5,6,7-tetrabromo-1H-benzo[d]imidazol-2-ylamino)-3-aminopropan-2-ol], the IC50 at PIM-1 is 13.1 nM; in test [3], 6520 nM; in test [2], 3980 nM. Regarding `CN(C)CCN(Cc1ccccc1)c1nc2c(Br)c(Br)c(Br)c(Br)c2n1Cc1ccccc1` [Compound 95, N,1-dibenzyl-4,5,6,7-tetrabromo-N-(2-(dimethylamino)ethyl)-1H-benzo[d]imidazol-2-amine], the IC50 turned out to be 75.7 nM at PIM-1 and 7610 nM in test [1]. As to `CN(Cc1ccccc1)c1nc2c(Br)c(Br)c(Br)c(Br)c2[nH]1` [Compound 117, N-benzyl-4,5,6,7-tetrabromo-N-methyl-1H-benzo[d]imidazol-2-amine], the figures for the IC50 (on PIM-1; in test [1]) were 85.6 nM and 9400 nM, respectively. For `Brc1c(Br)c(Br)c2[nH]c(NCCc3ccccn3)nc2c1Br` [Compound 128, 4,5,6,7-tetrabromo-N-(2-(pyridin-2-yl)ethyl)-1H-benzo[d]imidazol-2-amine], in that order: 71.3 nM and 3830 nM. Consider `Cc1c(Nc2nc3c(Br)c(Br)c(Br)c(Br)c3[nH]2)cccc1-c1nncn1C` [Compound 248, 4,5,6,7-tetrabromo-N-(2-methyl-3-(4-methyl-4H-1,2,4-triazol-3-yl)phenyl)-1H-benzo[d]imidazol-2-amine], for which, on PIM-1, the IC50 came to 48.9 nM. Still for that read-out and setting: for `Cc1nccn1CC1CCCN(c2nc3c(Br)c(Br)c(Br)c(Br)c3[nH]2)C1` (stereo not drawn) [Compound 262, 4,5,6,7-tetrabromo-2-(3-((2-methyl-1H-imidazol-1-yl)methyl)piperidin-1-yl)-1H-benzo[d]imidazole] the value was 61.4 nM. As for `Brc1c(Br)c(Br)c2[nH]c(N3CCCC(CN4CCN(c5ccccn5)CC4)C3)nc2c1Br` (stereo not drawn) [Compound 266, 4,5,6,7-tetrabromo-2-(3-((4-(pyridin-2-yl)piperazin-1-yl)methyl)piperidin-1-yl)-1H-benzo[d]imidazole], the IC50 on PIM-1 is 294 nM; in test [1] it was 2550 nM; in test [2], 2480 nM.

In the case of `Oc1ncc(Nc2nc3c(Br)c(Br)c(Br)c(Br)c3[nH]2)c(O)n1` [Compound 303, 5-(4,5,6,7-tetrabromo-1H-benzo[d]imidazol-2-ylamino)pyrimidine-2,4-diol], the IC50 at PIM-1 is 128 nM. With `OC1CCCCC1Nc1nc2c(Br)c(Br)c(Br)c(Br)c2[nH]1` (stereo not drawn) [Compound 334, 2-(4,5,6,7-tetrabromo-1H-benzo[d]imidazol-2-ylamino)cyclohexanol], the IC50 at PIM-1 came out at 14.1 nM; in test [1], 5340 nM.

For the molecule `CN(c1ccccc1)c1nc2c(Br)c(Br)c(Br)c(Br)c2[nH]1` [Compound 342, 4,5,6,7-tetrabromo-N-methyl-N-phenyl-1H-benzo[d]imidazol-2-amine], the IC50 on PIM-1 came out at 28.6 nM.

In the case of `CN(C)CCN1CCN(c2nc3c(Br)c(Br)c(Br)c(Br)c3[nH]2)CC1` [Compound 343, 2-(4-(4,5,6,7-tetrabromo-1H-benzo[d]imidazol-2-yl)piperazin-1-yl)-N,N-dimethylethanamine], the IC50 at PIM-1 is 36.8 nM.

For `Brc1c(Br)c(Br)c2[nH]c(N3CCNc4ccccc43)nc2c1Br` [Compound 367, 1-(4,5,6,7-tetrabromo-1H-benzo[d]imidazol-2-yl)-1,2′,3,4-tetrahydroquinoxaline], the IC50 at PIM-1 came to 39.5 nM; in test [1], 3770 nM.

(Values after patent US8604217B2, “Compound, a process for its preparation, a pharmaceutical composition, use of a compound, a method for modulating or regulating serine/threonine kinases and a serine/threonine kinases modulating agent” (Selvita S.A., priority 2009, dated 2013).)
